Assay results taken from US20120040955A1 (priority 2009, published 2012).

Tests used:
[1] = Changelian et al., 2003; cited from earlier work
[2] = target: T1, JAK3 (Homo sapiens, UniProt P52333); assay: kinobeads assay (competition with affinity matrix in mixed Molt4/Ramos cell lysate, dot blot detection), JAK3; assay type: binding; settings: activity level
T1 construct: endogenous in cells; host or cells: Mixed Molt4 / Ramos cell lysate (1:2)
T1 sequence (P52333 1-1124): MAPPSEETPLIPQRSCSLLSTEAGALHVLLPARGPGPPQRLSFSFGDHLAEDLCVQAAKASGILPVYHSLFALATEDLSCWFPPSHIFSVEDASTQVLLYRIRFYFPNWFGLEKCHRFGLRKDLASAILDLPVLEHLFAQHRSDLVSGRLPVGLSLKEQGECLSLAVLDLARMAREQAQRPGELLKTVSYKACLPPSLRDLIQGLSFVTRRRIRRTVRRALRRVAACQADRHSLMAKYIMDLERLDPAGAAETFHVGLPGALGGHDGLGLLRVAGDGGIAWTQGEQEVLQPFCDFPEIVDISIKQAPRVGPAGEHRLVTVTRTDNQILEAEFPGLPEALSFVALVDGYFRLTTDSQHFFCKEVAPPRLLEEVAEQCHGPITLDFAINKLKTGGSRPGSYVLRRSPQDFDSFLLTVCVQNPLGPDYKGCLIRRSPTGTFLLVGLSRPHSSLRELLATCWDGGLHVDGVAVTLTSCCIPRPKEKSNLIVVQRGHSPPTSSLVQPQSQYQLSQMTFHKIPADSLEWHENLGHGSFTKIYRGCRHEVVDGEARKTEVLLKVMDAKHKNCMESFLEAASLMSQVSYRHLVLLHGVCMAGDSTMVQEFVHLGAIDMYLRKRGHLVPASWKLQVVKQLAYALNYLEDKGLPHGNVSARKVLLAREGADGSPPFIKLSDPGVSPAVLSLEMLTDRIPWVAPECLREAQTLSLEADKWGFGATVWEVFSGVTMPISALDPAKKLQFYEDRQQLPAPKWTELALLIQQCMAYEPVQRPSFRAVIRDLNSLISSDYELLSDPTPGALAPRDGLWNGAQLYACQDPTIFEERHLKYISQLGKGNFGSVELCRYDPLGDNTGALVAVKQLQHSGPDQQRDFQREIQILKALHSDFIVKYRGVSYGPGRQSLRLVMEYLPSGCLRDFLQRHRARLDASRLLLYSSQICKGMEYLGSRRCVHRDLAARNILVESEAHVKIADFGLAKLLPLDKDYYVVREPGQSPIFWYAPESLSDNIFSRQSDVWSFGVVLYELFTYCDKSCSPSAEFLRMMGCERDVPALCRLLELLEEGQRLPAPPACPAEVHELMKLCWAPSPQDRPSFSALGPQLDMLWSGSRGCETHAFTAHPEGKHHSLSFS
Experimental: (§1) The compounds of the present invention as described in the previous examples were tested in a kinobeads assay as described for ZAP-70 (WO-A 2007/137867). Briefly, test compounds (at various concentrations) and the affinity matrix with the immobilized aminopyrido-pyrimidine ligand 24 were added to cell lysate aliquots and allowed to bind to the proteins in the lysate sample. After the incubation time the beads with captured proteins were separated from the lysate. Bound proteins were then eluted and the presence of, JAK2 and JAK3 was detected and quantified using specific antibodies in a dot blot procedure and the Odyssey infrared detection system. Dose response curves for individual kinases were generated and IC50 values calculated. Kinobeads assays for ZAP-70 (WO-A 2007/137867) and for kinase selectivity profiling (WO-A 2006/134056) have been previously described.
(§2) 5× DP buffer: 250 mM Tris-HCl pH 7.4, 25% Glycerol, 7.5 mM MgCl2, 750 mM NaCl, 5 mM Na3VO4; filter the 5× DP buffer through a 0.22 μm filter and store in aliquots at −80° C. The 5× DP buffer is diluted with H2O to 1× DP buffer containing 1 mM DTT and 25 mM NaF.
(§3) Stock solutions of test compounds were prepared in DMSO. In a 96 well plate 30 μl solution of diluted test compounds at 5 mM in DMSO were prepared. Starting with this solution a 1:3 dilution series (9 steps) was prepared. For control experiments (no test compound) a buffer containing 2% DMSO was used.
(§4) Molt4 cells (ATCC catalogue number CRL-1582) and Ramos cells (ATCC catalogue number CRL-1596) were grown in 1 litre Spinner flasks (Integra Biosciences, #182101) in suspension in RPMI 1640 medium (Invitrogen, #21875-034) supplemented with 10% Fetal Bovine Serum (Invitrogen) at a density between 0.15×10^6 and 1.2×10^6 cells/ml. Cells were harvested by centrifugation, washed once with 1× PBS buffer (Invitrogen, #14190-094) and cell pellets were frozen in liquid nitrogen and subsequently stored at −80° C. Cells were homogenized in a Potter S homogenizer in lysis buffer: 50 mM Tris-HCl, 0.8% NP40, 5% glycerol, 150 mM NaCl, 1.5 mM MgCl2, 25 mM NaF, 1 mM sodium vanadate, 1 mM DTT, pH 7.5. One complete EDTA-free tablet (protease inhibitor cocktail, Roche Diagnostics, 1873580) per 25 ml buffer was added. The material was dounced 10 times using a mechanized POTTER S, transferred to 50 ml falcon tubes, incubated for 30 minutes on ice and spun down for 10 min at 20,000 g at 4° C. (10,000 rpm in Sorvall SLA600, precooled). The supernatant was transferred to an ultracentrifuge (UZ)-polycarbonate tube (Beckmann, 355654) and spun for 1 hour at 100.000 g at 4° C. (33.500 rpm in Ti50.2, precooled). The supernatant was transferred again to a fresh 50 ml falcon tube, the protein concentration was determined by a Bradford assay (BioRad) and samples containing 50 mg of protein per aliquot were prepared. The samples were immediately used for experiments or frozen in liquid nitrogen and stored frozen at −80° C.
(§5) Cell lysate (approximately 50 mg protein per plate) was thawed in a water bath at room temperature and then kept on ice. To the thawed cell lysate 1× DP 0.8% NP40 buffer containing protease inhibitors (1 tablet for 25 ml buffer; EDTA-free protease inhibitor cocktail; Roche Diagnostics 1873580) was added in order to reach a final protein concentration of 5 mg/ml total protein. The diluted cell lysate was stored on ice. Mixed Molt4/Ramos lysate was prepared by combining one volume of Molt4 lysate and two volumes of Ramos lysate (ratio 1:2).
(§6) To a 96 well filter plate (Multiscreen HTS, BV Filter Plates, Millipore #MSBVN1250) were added per well: 100 μl affinity matrix (3% beads slurry), 3 μl of compound solution, and 50 μl of diluted lysate. Plates were sealed and incubated for three hours in a cold room on a plate shaker (Heidolph tiramax 1000) at 750 rpm. Afterwards the plate was washed twice with 230 μl washing buffer (1× DP 0.4% NP40). […]

[3] = target: T2, JAK2 (Homo sapiens, UniProt O60674); assay: kinobeads assay (competition with affinity matrix in mixed Molt4/Ramos cell lysate, dot blot detection), JAK2; assay type: binding; settings: activity level
T2 construct: endogenous in cells; host or cells: Mixed Molt4 / Ramos cell lysate (1:2)
T2 sequence (O60674 whole entry): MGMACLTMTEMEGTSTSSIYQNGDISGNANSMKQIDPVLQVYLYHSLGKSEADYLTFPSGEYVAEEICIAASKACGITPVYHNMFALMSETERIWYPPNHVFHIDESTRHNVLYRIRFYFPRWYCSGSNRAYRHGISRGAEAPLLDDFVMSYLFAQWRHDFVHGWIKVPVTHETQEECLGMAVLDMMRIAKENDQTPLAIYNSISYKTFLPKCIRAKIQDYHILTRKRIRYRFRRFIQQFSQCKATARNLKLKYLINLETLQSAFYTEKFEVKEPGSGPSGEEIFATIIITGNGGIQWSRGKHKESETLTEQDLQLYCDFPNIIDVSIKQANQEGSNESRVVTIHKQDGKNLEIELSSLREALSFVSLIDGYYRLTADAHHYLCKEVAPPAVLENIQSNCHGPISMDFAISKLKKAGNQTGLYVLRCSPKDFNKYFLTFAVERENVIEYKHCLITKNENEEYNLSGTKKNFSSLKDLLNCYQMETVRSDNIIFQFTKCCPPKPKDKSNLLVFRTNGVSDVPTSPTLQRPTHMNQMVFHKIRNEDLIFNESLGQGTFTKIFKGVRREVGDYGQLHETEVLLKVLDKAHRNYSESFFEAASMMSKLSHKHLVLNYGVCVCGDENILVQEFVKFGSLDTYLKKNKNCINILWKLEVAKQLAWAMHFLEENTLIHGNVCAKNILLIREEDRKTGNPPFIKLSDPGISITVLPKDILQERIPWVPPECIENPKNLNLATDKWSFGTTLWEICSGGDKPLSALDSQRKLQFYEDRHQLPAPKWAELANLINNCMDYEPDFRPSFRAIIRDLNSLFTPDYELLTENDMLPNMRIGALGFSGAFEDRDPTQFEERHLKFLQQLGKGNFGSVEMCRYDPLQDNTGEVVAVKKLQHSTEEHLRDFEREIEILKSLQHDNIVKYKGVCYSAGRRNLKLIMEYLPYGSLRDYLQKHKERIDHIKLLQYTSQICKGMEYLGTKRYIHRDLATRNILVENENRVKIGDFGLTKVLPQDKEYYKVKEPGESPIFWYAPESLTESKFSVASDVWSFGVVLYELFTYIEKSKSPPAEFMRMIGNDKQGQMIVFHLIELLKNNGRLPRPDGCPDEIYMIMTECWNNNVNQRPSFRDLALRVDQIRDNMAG
Experimental: as §1, §2, §3, §4, §5, §6

[4] = reviewed in Cetkovic-Cvrlje and Ucken, 2004; cited from earlier work
[5] = NOD mouse model of type I diabetes; cited from earlier work

SMILES	efficacy in an animal model of organ transplantation [1]	IC50 [2]	IC50 [3]	severity of GVHD [4]	spontaneous autoimmune diabetes development [5]
C[C@@H]1CCN(C(=O)CC#N)C[C@@H]1N(C)c1ncnc2[nH]ccc12 [CP-690,550]	show efficacy				
CCNC(=O)c1ccc(Nc2ncc(Cl)c(Nc3cccc(F)c3NS(C)(=O)=O)n2)c(F)c1 [Example 60, 4-((5-chloro-4-((3-fluoro-2-(methylsulfonamido)phenyl)amino)pyrimidin-2-yl)amino)-N-ethyl-3-fluorobenzamide]		< 100 nM	> 10000 nM		
CCNC(=O)c1ccc(Nc2ncc(Cl)c(Nc3ccccc3NS(C)(=O)=O)n2)c(F)c1 [Example 61, 4-((5-chloro-4-((2-(methylsulfonamido)phenyl)amino)pyrimidin-2-yl)amino)-N-ethyl-3-fluorobenzamide]		< 100 nM	1000 to 10000 nM		
CS(=O)(=O)Nc1c(F)cc(F)cc1Nc1nc(Nc2cc(C(=O)NC3CC3)ccc2F)ncc1Cl [Example 62, 3-((5-chloro-4-((3,5-difluoro-2-(methylsulfonamido)phenyl)amino)pyrimidin-2-yl)amino)-N-cyclopropyl-4-fluorobenzamide]		100 to 1000 nM	1000 to 10000 nM		
CNC(=O)c1ccc(F)c(Nc2ncc(Cl)c(Nc3cc(F)c(F)cc3NS(C)(=O)=O)n2)c1 [Example 63, 3-(5-chloro-4-(4,5-difluoro-2-(methylsulfonamido)phenylamino)pyrimidin-2-ylamino)-4-fluoro-N-methylbenzamide]		100 to 1000 nM	1000 to 10000 nM		
COc1cc2ncnc(Nc3ccc(O)cc3)c2cc1OC [JANEX-1]				attenuate the severity of GVHD	prevent spontaneous autoimmune diabetes development
